According to patent US20190276475A1, “CRYSTAL AND SALT OF NITROIMIDAZOLE, AND MANUFACTURING METHOD THEREOF” (priority 2016, published 2019):

Columns and labels:
[1] = tested on: Mycobacterium tuberculosis Erdman, ATCC 35801; assay: In vivo efficacy in mouse model of chronic infection; settings: mice, whole lung, day 32 to 59 after infection, counted day 60
[2] = physchem; settings: 22 °C, pH 2, aqueous buffer, kinetic from dmso stock
Procedure: The test compound and the control compound (10 mM DMSO mother liquor, 10 μL per well) were added to a 96-well plate containing 490 μL buffer per well. After 2 minutes of vortexing, the sample plate were incubated for 24 hours at room temperature (22±2° C.) on a shaker. 200 μL sample was then transferred to a Multi Screen filter plate (polycarbonate membrane), filtered through a millipore vacuum manifold and the filtrate was collected. The concentration of the compound in the filtrate was determined by HPLC-UV. Three UV standard solution of different concentrations and the solubility test sample were injected successively. Each sample was inserted twice, and the concentration was calculated by standard curve line and averaged.

[3] = Solid stability test under high temperature and high humidity conditions
Source text: The samples placed under different conditions were sampled and tested on the 5th day and 10th day, and the test results were compared with the initial test results of 0 days.

[4] = Stability test in different solvents for the crystal form A; settings: stirred at 40° C. for 2 days
Procedure: The mixture was stirred at 40° C. for 2 days, and then centrifuged. The solid in all samples was collected, dried in a vacuum oven (40° C.) overnight, and was tested for crystal form by XRPD.

[5] = physchem; settings: thermodynamic from solid, Solubility (mg/mL)
Procedure: The solubility test was carried out by using a manual stepwise dilution method under normal temperature conditions while observing the dissolution. About 2 mg of the crystal form C of the compound represented by formula (I) was added into different vials used in the liquid phase, and then an organic solvent or solvent mixture was added in small portions to observe the dissolution of the compound.

[6] = tested on: Vero Cell; assay: Vero cell cytotoxicity
[7] = tested on: M. tuberculosis H37R; assay: In vitro MIC against M. tuberculosis H37Rv, LORA; format: cell-based; settings: Mycobacterium tuberculosis, read-out: M. tuberculosis H37R LORA (MIC) (μg/mL)
[8] = tested on: MDR1-MDCK cells; assay: Bidirectional permeability in MDR1-MDCK cells; format: in vitro ADME; settings: conclusion
Procedure: MDR1-MDCK cells permanently expressing human P-glycoprotein were inoculated in a 96-well Insert cell plate and cultured for 4-7 days to form convergent monolayer cells.
After the incubation, the sample solutions in the donor wells and receiver wells were immediately mixed with cold acetonitrile solution containing an internal standard. The amount of the intracellular accumulated compound was measured by lysing the cells with the cold acetonitrile solution containing an internal standard. The concentration of the test compound in all samples (including the starting dosing solution, the supernatant in the donor wells, the receiving solution, and the cell lysate) was analyzed by LC/MS/MS method. The concentration of the test compound was expressed by the ratio of the peak area of the compound to the peak area of the internal standard.
The standard conditions for the transport experiment of the compound represented by formula (I) were as follows:
Test concentration: 2 (DMSO≤1%);
Direction: bidirectional transport, including A→B and B→A these two directions;
Inoculated time: single time, 2.5 hours;
Buffer for transport: HBSS, pH 7.4;
Inoculated condition: 37° C., 5% CO2, 95% relative humidity.

[9] = tested on: M. tuberculosis H37Rv; assay: In vitro MIC against M. tuberculosis H37Rv, MABA; format: cell-based
[10] = tested on: M. bovis ATCC35737; format: cell-based
[11] = high temperature (60° C., open), 5th day
[12] = high temperature (60° C., open), 10th day

Q: What does the source list for `C[C@]1(CN2Cc3nc(-c4ccc(F)cc4)sc3C2)Cn2cc([N+](=O)[O-])nc2O1.O=S(=O)(O)c1ccccc1` [the compound represented by formula (II)]?
A: Log value reduced ([1]; 10 mg/kg oral): 0.9; Number of colony ([1]; 10 mg/kg oral): 2.7E+05; Log value reduced ([1]; 30 mg/kg oral): 1.3; Number of colony ([1]; 30 mg/kg oral): 1.0E+05; Log value reduced ([1]; 100 mg/kg oral): 1.7; Number of colony ([1]; 100 mg/kg oral): 4.1E+04

Q: For `C[C@]1(CN2Cc3nc(-c4ccc(F)cc4)sc3C2)Cn2cc([N+](=O)[O-])nc2O1.O=S(=O)(O)c1ccccc1`, which solubility kinetic at 24 h [2] is on record?
A: 32.2 µM

Q: And the Appearance ([3]; 0 day)?
A: grey powder

Q: And the “Total impurity (%)” value ([3]; 0 day)?
A: 1.32%

Q: And the XRPD ([3]; 0 day)?
A: crystal

Q: What about the Appearance ([3]; […], open), 5th day) of the same molecule?
A: grey powder

Q: What about the “Total impurity (%)” value ([3]; […], open), 5th day) of the same molecule?
A: 1.32%

Q: What about the XRPD ([3]; […], open), 5th day) of the same molecule?
A: crystal

Q: And the “Total impurity (%)” value ([3]; […], open), 10th day)?
A: 1.60%

Q: What about the XRPD ([3]; […], open), 10th day) of the same molecule?
A: crystal

Q: What about the Appearance [3, 11] of the same molecule?
A: grey powder

Q: What about the “Total impurity (%)” value [3, 11] of the same molecule?
A: 1.49%

Q: And the XRPD [3, 11]?
A: crystal

Q: What about the “Total impurity (%)” value [3, 12] of the same molecule?
A: 1.86%

Q: And the XRPD [3, 12]?
A: crystal

Q: What about the “Appearance (2 days)” value ([4]; acetonitrile-water (1:1)) of the same molecule?
A: suspension

Q: And the “Result (crystal form by XRPD)” value ([4]; acetonitrile-water (1:1))?
A: crystal form A

Q: And the “Appearance (2 days)” value ([4]; acetonitrile)?
A: suspension

Q: What about the “Result (crystal form by XRPD)” value ([4]; acetonitrile) of the same molecule?
A: crystal form A

Q: What about the “Appearance (2 days)” value ([4]; ethanol-water (1:1)) of the same molecule?
A: suspension

Q: And the “Result (crystal form by XRPD)” value ([4]; ethanol-water (1:1))?
A: crystal form A

Q: What about the “Appearance (2 days)” value ([4]; ethanol) of the same molecule?
A: suspension

Q: And the “Result (crystal form by XRPD)” value ([4]; ethanol)?
A: crystal form A

Q: What about the “Appearance (2 days)” value ([4]; ethyl acetate) of the same molecule?
A: suspension

Q: And the “Result (crystal form by XRPD)” value ([4]; ethyl acetate)?
A: crystal form A

Q: And the “Appearance (2 days)” value ([4]; isopropanol-water (1:1))?
A: suspension

Q: And the “Result (crystal form by XRPD)” value ([4]; isopropanol-water (1:1))?
A: crystal form A

Q: And the “Appearance (2 days)” value ([4]; isopropanol)?
A: suspension

Q: What about the “Result (crystal form by XRPD)” value ([4]; isopropanol) of the same molecule?
A: crystal form A

Q: With `C[C@]1(CN2Cc3nc(-c4ccc(F)cc4)sc3C2)Cn2cc([N+](=O)[O-])nc2O1` as the molecule, how does the solubility ([5]; aqueous with cosolvent or surfactant or cyclodextrin) read?
A: < 2000 µg/mL

Q: What about the solubility ([5]; water) of the same molecule?
A: < 2000 µg/mL

Q: With `C[C@]1(COc2ccc(N3CCC(Oc4ccc(OC(F)(F)F)cc4)CC3)cc2)Cn2cc([N+](=O)[O-])nc2O1` [OPC-67683, Delamanid, reference compound] as the molecule, how does the Log value reduced ([1]; 100 mg/kg oral) read?
A: 0.9

Q: And the Number of colony ([1]; 100 mg/kg oral)?
A: 2.3E+05

Q: Which results are given for `C[C@]1(CN2Cc3nc(-c4ccc(F)cc4)sc3C2)Cn2cc([N+](=O)[O-])nc2O1` [the compound represented by formula (I)]?
A: IC50 ([6]; Chlorocebus sabaeus, Vero, read-out: Vero Cell (IC50) (μg/mL)): > 32 µg/mL; cytotoxicity (in words) ([6]; conclusion): without cytotoxicity; MIC [7]: 1 to 32 µg/mL; permeability compared to the reference compound OPC-67683 (in words) [8]: better permeability; MIC ([9]; Mycobacterium tuberculosis, H37RV): < 1 µg/mL; inhibitory activity against M. tuberculosis H37Rv strain (in words) ([9]; conclusion): good inhibitory activity; M. bovis ATCC35737 ([10]; MIC, BCG strain, Alamar Blue): <1 µg/mL; inhibitory activity against M. bovis BCG strain (in words) ([10]; conclusion): good inhibitory activity

Q: Which results are given for `NC(=O)c1cnccn1` [pyrazinamide, reference compound]?
A: Log value reduced ([1]; 150 mg/kg oral): 1.2; Number of colony ([1]; 150 mg/kg oral): 1.2E+05

Q: With `CO[C@H]1/C=C/O[C@@]2(C)Oc3c(C)c(O)c4c(O)c(c(/C=N/N5CCN(C)CC5)c(O)c4c3C2=O)NC(=O)/C(C)=C\C=C\[C@H](C)[C@H](O)[C@@H](C)[C@@H](O)[C@@H](C)[C@H](OC(C)=O)[C@@H]1C` [Rifampin, reference compound] as the molecule, how does the Log value reduced ([1]; 15 mg/kg oral) read?
A: 2.2

Q: And the Number of colony ([1]; 15 mg/kg oral)?
A: 1.2E+04
